# Laboratory results taken from the supplement of paper PMC8671470.
# Tests used:
# Details in all cases: 72 h
# [1] = system: myeloid leukemia patient primary cells Pat.10; experiment: cell viability (% survival relative to DMSO control); higher = less cytotoxic
# How it was run: (§1)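 Seventy compounds were pre-printed on 384-well plates at five tenfold concentrations between 1 and 10,000 nM, in duplicate. Thawed mononuclear cells purified by Ficoll from AML or CML patients were added at 10,000 cells/well in RPMI 1640 with 10% FBS for 72 h. Viability by CellTiter-Glo was normalised to DMSO and 10 μM proteasome-inhibitor wells. Where stated, area under the curve was taken from log-logistic fits made with the drc and PharmacoGx R packages, each fit having four parameters.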
# [2] = system: myeloid leukemia patient primary cells Pat.11; experiment: as above
# How it was run: as §1
# [3] = system: myeloid leukemia patient primary cells Pat.12; experiment: as above
# How it was run: as §1
# [4] = system: myeloid leukemia patient primary cells Pat.13; experiment: as above
# How it was run: as §1
# [5] = system: myeloid leukemia patient primary cells Pat.14; experiment: as above
# How it was run: as §1
# [6] = system: myeloid leukemia patient primary cells Pat.15; experiment: as above
# How it was run: as §1
# [7] = system: myeloid leukemia patient primary cells Pat.1; experiment: as above
# How it was run: as §1
# [8] = system: myeloid leukemia patient primary cells Pat.2; experiment: as above
# How it was run: as §1
# [9] = system: myeloid leukemia patient primary cells Pat.3; experiment: as above
# How it was run: as §1
# [10] = system: myeloid leukemia patient primary cells Pat.4; experiment: as above
# How it was run: as §1
# [11] = system: myeloid leukemia patient primary cells Pat.5; experiment: as above
# How it was run: as §1
# [12] = system: myeloid leukemia patient primary cells Pat.6; experiment: as above
# How it was run: as §1
# [13] = system: myeloid leukemia patient primary cells Pat.7; experiment: as above
# How it was run: as §1
# [14] = system: myeloid leukemia patient primary cells Pat.8; experiment: as above
# How it was run: as §1
# [15] = system: myeloid leukemia patient primary cells Pat.9; experiment: as above
# How it was run: as §1
# [16] = system: KU-812; experiment: cell viability (% survival relative to DMSO control, bortezomib = 0%); higher = less cytotoxic
# How it was run: (§2)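 After 72 h at 37 °C with 5% CO2, cell viability in 384-well plates was measured by CellTiter-Glo luminescence. The plates held compounds pre-printed at 1, 10, 100, 1000 or 10000 nM in duplicate, and cells from 10 AML and 5 CML lines seeded at densities titrated to linear growth. Percent survival is the duplicate mean, normalised to vehicle as 100% and a 10 µM positive control as 0%.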
# [17] = system: MOLM-13; experiment: as above
# How it was run: as §2
# [18] = system: NOMO-1; experiment: as above
# How it was run: as §2
# [19] = system: THP-1; experiment: as above
# How it was run: as §2
structure (smiles),measurement,setting,value
Oc1ncc(F)c(O)n1 [5-fluorouracil],cell viability,[1]; 1 nM,> 100%
same,cell viability,[1]; 10 nM,78.1%
same,cell viability,[1]; 100 nM,65%
same,cell viability,[1]; 1000 nM,68.9%
same,cell viability,[1]; 10000 nM,50.5%
same,cell viability,[2]; 1 nM,99.9%
same,cell viability,[2]; 10 nM,97.2%
same,cell viability,[2]; 100 nM,96.6%
same,cell viability,[2]; 1000 nM,96.7%
same,cell viability,[2]; 10000 nM,95.7%
same,cell viability,[3]; 1 nM,94.2%
same,cell viability,[3]; 10 nM,95.4%
same,cell viability,[3]; 100 nM,87.6%
same,cell viability,[3]; 1000 nM,95.5%
same,cell viability,[3]; 10000 nM,91.4%
same,cell viability,[4]; 1 nM,88.8%
same,cell viability,[4]; 10 nM,91.2%
same,cell viability,[4]; 100 nM,90%
same,cell viability,[4]; 1000 nM,72.7%
same,cell viability,[4]; 10000 nM,81%
same,cell viability,[5]; 1 nM,94.6%
same,cell viability,[5]; 10 nM,87%
same,cell viability,[5]; 100 nM,90.3%
same,cell viability,[5]; 1000 nM,90.2%
same,cell viability,[5]; 10000 nM,84.9%
same,cell viability,[6]; 1 nM,83.4%
same,cell viability,[6]; 10 nM,91.5%
same,cell viability,[6]; 100 nM,96.7%
same,cell viability,[6]; 1000 nM,91%
same,cell viability,[6]; 10000 nM,93.9%
same,cell viability,[7]; 1 nM,88.5%
same,cell viability,[7]; 10 nM,93.1%
same,cell viability,[7]; 100 nM,91%
same,cell viability,[7]; 1000 nM,97%
same,cell viability,[7]; 10000 nM,85.8%
same,cell viability,[8]; 1 nM,95.9%
same,cell viability,[8]; 10 nM,94.9%
same,cell viability,[8]; 100 nM,99.1%
same,cell viability,[8]; 1000 nM,88.9%
same,cell viability,[8]; 10000 nM,97.5%
same,cell viability,[9]; 1 nM,90.4%
same,cell viability,[9]; 10 nM,96.5%
same,cell viability,[9]; 100 nM,94.5%
same,cell viability,[9]; 1000 nM,96.6%
same,cell viability,[9]; 10000 nM,41.9%
same,cell viability,[10]; 1 nM,90.8%
same,cell viability,[10]; 10 nM,88.4%
same,cell viability,[10]; 100 nM,92.1%
same,cell viability,[10]; 1000 nM,88.9%
same,cell viability,[10]; 10000 nM,60.6%
same,cell viability,[11]; 1 nM,88.1%
same,cell viability,[11]; 10 nM,90.3%
same,cell viability,[11]; 100 nM,84.7%
same,cell viability,[11]; 1000 nM,61.3%
same,cell viability,[11]; 10000 nM,13.9%
same,cell viability,[12]; 1 nM,> 100%
same,cell viability,[12]; 10 nM,96.6%
same,cell viability,[12]; 100 nM,95.8%
same,cell viability,[12]; 1000 nM,99.3%
same,cell viability,[12]; 10000 nM,98.5%
same,cell viability,[13]; 1 nM,89.7%
same,cell viability,[13]; 10 nM,83.9%
same,cell viability,[13]; 100 nM,82.8%
same,cell viability,[13]; 1000 nM,92.8%
same,cell viability,[13]; 10000 nM,50.8%
same,cell viability,[14]; 1 nM,85.8%
same,cell viability,[14]; 10 nM,86.3%
same,cell viability,[14]; 100 nM,94.5%
same,cell viability,[14]; 1000 nM,80.1%
same,cell viability,[14]; 10000 nM,98.7%
same,cell viability,[15]; 1 nM,76.6%
same,cell viability,[15]; 10 nM,52.3%
same,cell viability,[15]; 100 nM,92.6%
same,cell viability,[15]; 1000 nM,71.4%
same,cell viability,[15]; 10000 nM,45.4%
same,cell viability,[16]; 1 nM,97.6%
same,cell viability,[16]; 10 nM,100%
same,cell viability,[16]; 100 nM,88.4%
same,cell viability,[16]; 1000 nM,88%
same,cell viability,[16]; 10000 nM,66.6%
same,cell viability,[17]; 1 nM,128%
same,cell viability,[17]; 10 nM,109%
same,cell viability,[17]; 100 nM,82.2%
same,cell viability,[17]; 1000 nM,22.4%
same,cell viability,[17]; 10000 nM,2.01%
same,cell viability,[18]; 1 nM,92.2%
same,cell viability,[18]; 10 nM,105%
same,cell viability,[18]; 100 nM,95.1%
same,cell viability,[18]; 1000 nM,68.5%
same,cell viability,[18]; 10000 nM,61.9%
same,cell viability,[19]; 1 nM,101%
same,cell viability,[19]; 10 nM,111%
same,cell viability,[19]; 100 nM,99.3%
same,cell viability,[19]; 1000 nM,97.8%
same,cell viability,[19]; 10000 nM,63.3%
CN(C)CCNC(=O)c1cccn2c(=O)c3cc4ccccc4cc3nc12 [Bmh-21],cell viability,[1]; 1 nM,74.6%
same,cell viability,[1]; 10 nM,87.5%
same,cell viability,[1]; 100 nM,72.1%
same,cell viability,[1]; 1000 nM,38.9%
same,cell viability,[1]; 10000 nM,17.3%
same,cell viability,[2]; 1 nM,> 100%
same,cell viability,[2]; 10 nM,97.6%
same,cell viability,[2]; 100 nM,> 100%
same,cell viability,[2]; 1000 nM,24.3%
same,cell viability,[2]; 10000 nM,1.02%
same,cell viability,[3]; 1 nM,94.1%
same,cell viability,[3]; 10 nM,91.9%
same,cell viability,[3]; 100 nM,97.3%
same,cell viability,[3]; 1000 nM,55.1%
same,cell viability,[3]; 10000 nM,0.342%
same,cell viability,[4]; 1 nM,87.4%
same,cell viability,[4]; 10 nM,96.6%
same,cell viability,[4]; 100 nM,84.1%
same,cell viability,[4]; 1000 nM,19.7%
same,cell viability,[4]; 10000 nM,1.27%
same,cell viability,[5]; 1 nM,87.3%
same,cell viability,[5]; 10 nM,95%
same,cell viability,[5]; 100 nM,90.6%
same,cell viability,[5]; 1000 nM,42.8%
same,cell viability,[5]; 10000 nM,3.08%
same,cell viability,[6]; 1 nM,91.5%
same,cell viability,[6]; 10 nM,99.6%
same,cell viability,[6]; 100 nM,92.4%
same,cell viability,[6]; 1000 nM,0.134%
same,cell viability,[6]; 10000 nM,0.56%
same,cell viability,[7]; 1 nM,85.9%
same,cell viability,[7]; 10 nM,91.9%
same,cell viability,[7]; 100 nM,91.5%
same,cell viability,[7]; 1000 nM,3.71%
same,cell viability,[7]; 10000 nM,0.712%
same,cell viability,[8]; 1 nM,96.5%
same,cell viability,[8]; 10 nM,98.5%
same,cell viability,[8]; 100 nM,97.8%
same,cell viability,[8]; 1000 nM,91.6%
same,cell viability,[8]; 10000 nM,33.1%
same,cell viability,[9]; 1 nM,94.4%
same,cell viability,[9]; 10 nM,90.3%
same,cell viability,[9]; 100 nM,88.3%
same,cell viability,[9]; 1000 nM,12.1%
same,cell viability,[9]; 10000 nM,3.46%
same,cell viability,[10]; 1 nM,81.3%
same,cell viability,[10]; 10 nM,89.6%
same,cell viability,[10]; 100 nM,93.9%
same,cell viability,[10]; 1000 nM,3.78%
same,cell viability,[10]; 10000 nM,1.54%
same,cell viability,[11]; 1 nM,35.6%
same,cell viability,[11]; 10 nM,94.1%
same,cell viability,[11]; 100 nM,79.9%
same,cell viability,[11]; 1000 nM,1.33%
same,cell viability,[11]; 10000 nM,0.265%
same,cell viability,[12]; 1 nM,96.4%
same,cell viability,[12]; 10 nM,> 100%
same,cell viability,[12]; 100 nM,> 100%
same,cell viability,[12]; 1000 nM,67.1%
same,cell viability,[12]; 10000 nM,10.2%
same,cell viability,[13]; 1 nM,59.2%
same,cell viability,[13]; 10 nM,82.6%
same,cell viability,[13]; 100 nM,92.7%
same,cell viability,[13]; 1000 nM,14.1%
same,cell viability,[13]; 10000 nM,4.95%
same,cell viability,[14]; 1 nM,81.8%
same,cell viability,[14]; 10 nM,74.6%
same,cell viability,[14]; 100 nM,79.8%
same,cell viability,[14]; 1000 nM,88.3%
same,cell viability,[14]; 10000 nM,< 0%
same,cell viability,[15]; 1 nM,63%
same,cell viability,[15]; 10 nM,90.4%
same,cell viability,[15]; 100 nM,69.9%
same,cell viability,[15]; 1000 nM,3.68%
same,cell viability,[15]; 10000 nM,3.45%
same,cell viability,[16]; 1 nM,98.1%
same,cell viability,[16]; 10 nM,105%
same,cell viability,[16]; 100 nM,108%
same,cell viability,[16]; 1000 nM,15.5%
same,cell viability,[16]; 10000 nM,-0.163%
same,cell viability,[17]; 1 nM,123%
same,cell viability,[17]; 10 nM,92.6%
same,cell viability,[17]; 100 nM,102%
same,cell viability,[17]; 1000 nM,87.6%
same,cell viability,[17]; 10000 nM,22.1%
same,cell viability,[18]; 1 nM,106%
same,cell viability,[18]; 10 nM,101%
same,cell viability,[18]; 100 nM,101%
same,cell viability,[18]; 1000 nM,45.9%
same,cell viability,[18]; 10000 nM,-0.0945%
same,cell viability,[19]; 1 nM,102%
same,cell viability,[19]; 10 nM,96.4%
same,cell viability,[19]; 100 nM,104%
same,cell viability,[19]; 1000 nM,45.1%
same,cell viability,[19]; 10000 nM,-0.241%
